Measurements: patent US7271198B2, “Method of treating autoimmune diseases” (Wake Forest University, priority 2000, dated 2007)

Experiments:
TGF-β1 mRNA = experiment: PCR of TGF-β1 mRNA in SLE and control T cells / PBMCs; type: cell-based, human; conditions: SLE PBMCs exposed to TSA and SAHA (summary statement)
Description: (§1) Gene expression of TGF-β1 was tested to determine if the gene expression is suppressed by deacetylation of histones in SLE. In this determination, SLE PBMCs or isolated T cells were treated with the histone deacetylase inhibitors (HDIs), TSA or SAHA, for 18hr. […] Subsequently, semi-quantitative PCR was performed to determine the amounts of […] transcripts in SLE and control T cells treated with vehicle or TSA (1000 ng/ml). […] There is no change in GAPDH transcript in normal and SLE T cells after treatment of HDIs. Increased TGF-β1 transcript was associated with a subsequent increase in TGF-β1 protein secretion by SLE PBMCs. When compared to vehicle treated PBMCs, total TGF-β1 protein in culture supernatants from SLE PBMCs increased by approximately 30%. In contrast, there was no increase in total TGF-β1 secretion in TSA treated cells in normal healthy controls. Similar results may be obtained by SAHA.

TGF-β1 protein = TGF-β1 protein secretion by PBMCs; type: cell-based, human; conditions: SLE PBMCs exposed to TSA and SAHA (summary statement)
Description: as §1

[1] = system: acetylated H3 and H4 histones; experiment: Western immunoblot of acetylated H3 and H4 histones in SLE PBMCs; type: cell-based, human; conditions: 1000 ng/ml TSA or 20 μM SAHA, 18 hr
Description: The effect of TSA and SAHA was examined to determine if HDIs induce accumulation of acetylated histones in SLE PBMCs on the level of histone acetylation in SLE PBMCs. Following culture of PBMCs in the presence of vehicle, 1000 ng/ml TSA or 20 μM SAHA for 18 hr, histones were isolated.

IFN-γ mRNA = IFN-γ mRNA in MRL/lpr splenocytes; type: cell-based, mouse
Description: In determining whether TSA can down-regulate IFN-γ mRNA, splenocytes from older, 24-wk MRL/lpr mice were treated with 0 to 500 ng/ml of TSA for 18 hr. […] Compared to splenocytes from 10-wk old mice that had low IFN-γ mRNA (FIG. 8B, lane 1), older mice had higher constitutive levels of IFN-γ transcripts normalized to the housekeeping gene, GAPDH (FIG. 8A, lane 1). […] Maximal inhibition of IFN-γ transcript consistently occurred at 500 ng/ml of TSA.
To establish whether TSA or SAHA down-regulates Con A-induced IFN-γ mRNA expression, splenocytes from 10-wk old mice were stimulated with Con A (10 μg/ml) for 18 hr. From previous kinetic studies, IFN-γ mRNA is maximally expressed when T cells are activated for 18 hr. […] Thus, both TSA and SAHA inhibit IFN-γ. mRNA up-regulation in response to mitogenic stimulation.

IFN-γ protein = IFN-γ protein secretion by MRL/lpr splenocytes; type: cell-based, mouse; conditions: Con A-stimulated splenocytes from younger MRL/lpr mice, 72 hr; p=0.004
From the text: The marked inhibition of IFN-γ transcript by these inhibitors prompted us to quantify IFN-γ protein secretion in splenocyte culture supernatants. Over 72 hr, Con A, but not LPS, stimulated splenocytes from younger MRL/lpr mice to secrete a mean (±SEM) 1,563.2±88.3 pg/ml of IFN-γ (FIG. 8D). […] Thus, inhibition of IFN-γ transcription by TSA and SAHA blocks secretion of IFN-γ protein by splenocytes.

[2] = system: IL-12 p35 and p40 transcripts; experiment: IL-12 p35 and p40 transcripts in MRL/lpr splenocytes; type: cell-based, mouse; conditions: splenocytes from 10-wk old MRL/lpr mice preincubated 18 hr, stimulated 6 or 18 hr
Description: In this study, the question of whether TSA down-regulates transcription of both IL-12 p35 and p40 subunit mRNA was investigated. […] Splenocytes were stimulated with LPS and IFN-γ for 6 or 18 hr. […] When splenocytes were preincubated with TSA or SAHA for 18 hr and then stimulated with LPS and IFN-γ IL-12 p35 and p40 transcripts were undetectable (FIGS. 9B–D).

IL-12 p40 protein = IL-12 p40 protein secretion by MRL/lpr splenocytes; type: cell-based, mouse; conditions: splenocytes stimulated with LPS and IFN-γ 24 hr; stimulated control 45.3±9.1; p=0.003
Description: When splenocytes were activated with LPS (100 μg/ml) and IFN-γ 100U/ml) for 24 hr the mean (±SEM) IL-12 p40 secretion was 45.3±9.1 pg/ml.

IL-6 mRNA = IL-6 mRNA in MRL/lpr splenocytes; type: cell-based, mouse; conditions: splenocytes from younger MRL/lpr mice pretreated 18 hr, stimulated 6 or 18 hr
Description: (§2) In determining whether TSA or SAHA down-regulate IL-6 mRNA content, splenocytes from 24-wk MRL/lpr mice were treated with increasing concentrations of TSA for 18 hr. […] TSA decreased IL-6 transcript at a concentration of 100 ng/ml and exerted maximal inhibition at 300 ng/ml. To address whether TSA and SAHA down-regulate LPS- and IFN-γ induced IL-6 transcript levels, splenocytes from younger MRL/lpr mice were treated in the absence or presence of TSA or SAHA for 18 hr before LPS and IFN-γ stimulation for 6 or 18 hr. […] Next, the effect of TSA and SAHA on IL-6 protein secretion in stimulated splenocytes was measured (FIG. 10D). When splenocytes were cultured with LPS and IFN-γ for 72 hr, there was a mean (±SEM) 34.4±7.6 pg/ml of IL-6 protein secretion.

IL-6 protein = IL-6 protein secretion by MRL/lpr splenocytes; type: cell-based, mouse; conditions: splenocytes with LPS and IFN-γ 72 hr; stimulated control 34.4±7.6 pg/ml; p=0.002
Description: as §2

IL-10 mRNA = IL-10 mRNA in MRL/lpr splenocytes; type: cell-based, mouse; conditions: splenocytes from 10-wk old MRL/lpr mice pretreated 18 hr, stimulated 6 or 18 hr
Description: In investigating whether TSA down-regulates IL-10 mRNA, MRL/lpr splenocytes were treated with increasing concentrations of TSA. The heightened, constitutive expression of IL-10 mRNA confirms previous findings (FIGS. 11A & 11B, lane 1). […] To address whether TSA and SAHA down-regulate LPS- and IFN-γ induced IL-10 transcript, splenocytes from 10-wk old MRL/lpr mice were treated in the absence or presence of TSA or SAHA for 18 hr before LPS and IFN-γ stimulation for 6 or 18 hr.

IL-10 protein = IL-10 protein secretion by MRL/lpr splenocytes; type: cell-based, mouse; conditions: MRL/lpr splenocytes stimulated by LPS, Con A, or LPS+IFN-γ, 72 hr
From the text: To determine the effect of TSA and SAHA on IL-10 protein secretion, MRL/lpr splenocytes were stimulated with Con A, LPS, or LPS+IFN-γ for 72 hr in the absence or presence of TSA or SAHA. As shown in the FIG. 11D, splenocytes stimulated with Con A, LPS, or LPS+IFN-γ secreted a mean (±SEM) of 31.8±4.5, 32.3±1.9, and 34.8±4.9 pg/ml, respectively, of IL-10 protein.

[3] = system: acetylated H3 and H4 histones; experiment: Immunoblot of acetylated H3 and H4 histones in MRL/lpr splenocytes; type: cell-based, mouse; conditions: 18 hr exposure
From the text: One mechanism by which HDIs suppress transcription of cytokine genes in MRL/lpr splenocytes may be by increasing accumulation of acetylated histones which may result in chromatin remodeling. The accumulation of acetylated histones H3 and H4 in HDI-treated splenocytes was quantified to test this hypothesis. FIG. 12 is an immunoblot analysis of the acetylation levels of H3 and H4 histones.

iNOS mRNA = iNOS mRNA induction in MRL/lpr splenocytes; type: cell-based, mouse; conditions: splenocytes from 10 wk old mice, LPS and IFN-γ 24 hr
From the text: Excessive production of nitric oxide (NO) is crucial to the initiation and maintenance of glomerulonephritis in MRL/lpr mice. Pharmacologic inhibition of NO synthesis in MRL/lpr mice abrogates disease progression. In examining whether HDIs could suppress inducible nitric oxide synthetase (iNOS), splenocytes from 10 wk old mice were stimulated in the presence or absence of TSA or SAHA with LPS and IFN-γ for 24 hr. […] To determine whether HDIs could suppress nitric oxide secretion by mesangial cells, mesangial cells were stimulated with LPS ([…]) in the presence of vehicle or TSA for 24 hr. The supernatant from the cell culture was assayed for nitric oxide.

HDAC = conditions: statement from cited literature; cited from earlier work

Question: Which “increase in TGF-β1 transcript” value (TGF-β1 mRNA) does the source give for `O=C(CCCCCCC(=O)Nc1ccccc1)NO` [SAHA, Suberoylanilide Hydroxamic Acid] here?
Answer: eight-fold

Question: And the “rise in the synthesis of TGF-β1 protein” value (TGF-β1 protein)?
Answer: 30%

Question: And the “accumulation of acetylated H3 and H4 histones” value [1]?
Answer: induced the accumulation

Question: What about the “optimal dose in dose titration experiments” value (IFN-γ mRNA; MRL/lpr splenocytes, data not shown) of the same compound?
Answer: 10 µM

Question: What about the “Con A-induced up-regulation of IFN-γ transcript” value (IFN-γ mRNA; splenocytes from 10-wk old mice preincubated 18 hr, Con A 10 μg/ml 18 hr, vs vehicle) of the same compound?
Answer: markedly reduced

Question: What about the IFN-γ protein secretion (IFN-γ protein) of the same compound?
Answer: did not secrete detectable levels

Question: What about the “LPS and IFN-γ induced IL-12 p35 and p40 transcripts” value [2] of the same compound?
Answer: undetectable

Question: What about the “IL-12 p40 secretion (mean±SEM)” value (IL-12 p40 protein) of the same compound?
Answer: 9.1 ± 1.9 pg/mL

Question: And the “LPS- and IFN-γ induced IL-6 mRNA” value (IL-6 mRNA)?
Answer: no detectable IL-6 mRNA

Question: What about the IL-6 protein secretion (IL-6 protein) of the same compound?
Answer: no detectable IL-6 protein secretion

Question: What about the “LPS- and IFN-γ induced IL-10 mRNA” value (IL-10 mRNA) of the same compound?
Answer: no detectable IL-10 mRNA

Question: And the IL-10 protein secretion (IL-10 protein)?
Answer: no detectable IL-10 secretion

Question: And the “accumulation of acetylated H3 and H4 histones” value [3]?
Answer: marked increase

Question: What about the “iNOS mRNA induction” value (iNOS mRNA) of the same compound?
Answer: able to suppress iNOS mRNA induction

Question: With `CC(=O)NCCCCCCNC(C)=O` [HBMA, Hexamethylene bisacetamide] as the compound, how does the HDAC inhibition (HDAC) read?
Answer: not effective as HDAC Inhibitors

Question: For `CCOC(=O)C(CCCCCC(=O)N(C)C)(CCCCCC(=O)N(C)C)C(=O)OCC` [EMBA, Diethyl bix(pentamethylene-N,N-dimethylcarboxamide) malonate], which HDAC inhibition (HDAC) is on record?
Answer: not effective as HDAC Inhibitors

Question: With mono-MTM-depudecin as the compound, how does the HDAC inhibition (HDAC) read?
Answer: do not inhibit HDAC
